# Measurements as given in patent publication US20120225062A1 (priority 2011, published 2012).
# Assays:
# Pim 2 = Pim 2 (Homo sapiens, UniProt Q9P1W9); assay: Pim 2 AlphaScreen assay (high ATP)
# Pim 3 = Pim 3 (Homo sapiens, UniProt Q86V86); assay: Pim 3 AlphaScreen assay (high ATP)
# Procedure: The activity of Pim 1, Pim 2, & Pim 3 is measured using a homogeneous bead based system quantifying the amount of phosphorylated peptide substrate resulting from kinase-catalyzed phosphoryl transfer to a peptide substrate. Compounds to be tested are dissolved in 100% DMSO and directly distributed to a white 384-well plate at 0.25 μl per well. […] This is followed by the addition of 5 μl/well of Pim 1, Pim 2 or Pim 3 kinase in assay buffer (concentrations described below). Final assay concentrations (described below) are in 2.5% DMSO. The reactions are performed for ˜2 hours, then stopped by the addition of 10 μl of 0.75 μg/ml anti-phospho Ser/Thr antibody (Cell Signaling), 10 μg/ml Protein A AlphaScreen beads (Perkin Elmer), and 10 μg/ml streptavidin coated AlphaScreen beads in stop/detection buffer (50 mM EDTA, 95 mM Tris, pH=7.5, 0.01% Tween-20). The stopped reactions are incubated overnight in the dark. The phosphorylated peptide is detected via an oxygen anion initiated chemiluminescence/fluorescence cascade using the Envision plate reader (Perkin Elmer).
# Pim 1 = Pim 1 (Homo sapiens, UniProt P11309); assay: Pim 1 AlphaScreen assay (high ATP)
# [1] = system: KMS11 (human myeloma cell line); assay: Cell Proliferation Assay (CellTiter-Glo, 3 days); type: cell-based; settings: KMS-11, 72 h, KMS11-luc cells
# Outline: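 EC50 from CellTiter-Glo luminescence after 3-day, 37° C compound treatment of KMS11 cells seeded at 2000 per well in IMDM plus 10% FBS.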
# Chain of Pim 1 (P11309 whole entry): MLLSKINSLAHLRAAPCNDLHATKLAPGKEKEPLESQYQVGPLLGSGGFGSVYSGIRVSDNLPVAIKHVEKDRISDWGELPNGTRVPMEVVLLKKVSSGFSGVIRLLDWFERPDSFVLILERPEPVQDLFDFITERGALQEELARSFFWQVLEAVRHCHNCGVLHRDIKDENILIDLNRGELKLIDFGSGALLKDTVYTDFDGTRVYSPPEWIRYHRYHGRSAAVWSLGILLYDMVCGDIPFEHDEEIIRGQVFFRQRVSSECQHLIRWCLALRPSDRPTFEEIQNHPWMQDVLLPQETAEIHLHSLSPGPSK
# Chain of Pim 2 (Q9P1W9 whole entry): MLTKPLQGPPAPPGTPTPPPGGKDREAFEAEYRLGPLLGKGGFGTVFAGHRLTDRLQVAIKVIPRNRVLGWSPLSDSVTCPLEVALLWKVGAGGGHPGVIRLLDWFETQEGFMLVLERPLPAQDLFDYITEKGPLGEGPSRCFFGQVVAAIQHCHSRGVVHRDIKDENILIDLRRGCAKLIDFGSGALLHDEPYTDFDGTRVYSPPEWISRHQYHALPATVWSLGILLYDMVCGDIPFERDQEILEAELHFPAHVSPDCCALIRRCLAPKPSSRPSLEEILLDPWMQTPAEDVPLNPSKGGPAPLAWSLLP
SMILES,IC50 (Pim 2),IC50 (Pim 3),IC50 (Pim 1),EC50 [1]
"C[C@H]1CN(c2ccncc2NC(=O)c2ccc(F)c(-c3c(F)cc(C4CCOCC4)cc3F)n2)C[C@@H](N)[C@@H]1O [Example 99, N-(4-((3R,4R,5S)-3-amino-4-hydroxy-5-methylpiperidin-1-yl)pyridin-3-yl)-6-(2,6-difluoro-4-(tetrahydro-2H-pyran-4-yl)phenyl)-5-fluoropicolinamide]",0.57 nM,0.12 nM,0.01 nM,10 nM
"COc1cc(F)c(-c2nc(C(=O)Nc3cnccc3N3C[C@@H](N)[C@H](O)[C@@H](C)C3)ccc2F)c(F)c1 [Example 15, N-(4-((3R,4R,5S)-3-amino-4-hydroxy-5-methylpiperidin-1-yl)pyridin-3-yl)-6-(2,6-difluoro-4-methoxyphenyl)-5-fluoropicolinamide]",1.14 nM,0.35 nM,0.02 nM,21 nM
"COCCOc1cc(F)c(-c2nc(C(=O)Nc3cnccc3[C@H]3C[C@@H](N)[C@H](O)[C@@H](C)C3)ccc2F)c(F)c1 [Example 24, N-(4-((1R,3R,4R,5S)-3-amino-4-hydroxy-5-methylcyclohexyl)pyridin-3-yl)-6-(2,6-difluoro-4-(2-methoxyethoxy)phenyl)-5-fluoropicolinamide]",5.57 nM,2.46 nM,0.07 nM,72 nM
"C[C@@H]1C[C@H](N)C[C@H](c2ccncc2NC(=O)c2ccc(F)c(-c3c(F)cc(C4(F)CCOCC4)cc3F)n2)C1 [Example 126, N-(4-((1R,3S,5S)-3-amino-5-methylcyclohexyl)pyridin-3-yl)-6-(216-difluoro-4-(4-fluorotetrahydro-2H-pyran-4-yl)phenyl)-5-fluoropicolinamide]",1.33 nM,1.15 nM,0.02 nM,64 nM
"CC(C)Oc1cc(F)c(-c2nc(C(=O)Nc3cnccc3N3C[C@@H](N)[C@H](O)[C@@H](C)C3)ccc2F)c(F)c1 [Example 93, N-(4-((3R,4R,5S)-3-amino-4-hydroxy-5-methylpiperidin-1-yl)pyridin-3-yl)-6-(2,6-difluoro-4-isopropoxyphenyl)-5-fluoropicolinamide]",0.78 nM,0.1 nM,0.01 nM,20 nM
"Cc1cc(F)c(-c2nc(C(=O)Nc3cnccc3[C@@H]3C[C@H](C)C[C@H](N)C3)c(N)cc2F)c(F)c1 [Example 222, 3-amino-N-(4-((1R,3S,5S)-3-amino-5-methylcyclohexyl)pyridin-3-yl)-6-(2,6-difluoro-4-methylphenyl)-5-fluoropicolinamide]",0.81 nM,0.35 nM,0.01 nM,23 nM
"C[C@@H]1C[C@H](N)C[C@H](c2ccncc2NC(=O)c2ccc(F)c(-c3c(F)cc4c(c3F)OCC4)n2)C1 [Example 179, N-(4-((1R,3S,5S)-3-amino-5-methylcyclohexyl)pyridin-3-yl)-6-(5,7-difluoro-2,3-dihydrobenzofuran-6-yl)-5-fluoropicolinamide]",0.51 nM,0.3 nM,0.01 nM,77 nM
"CC(C)[C@@H]1C[C@H](N)C[C@H](c2ccncc2NC(=O)c2ccc(F)c(-c3c(F)cc(C(C)(C)O)cc3F)n2)C1 [Example 119, N-(4-((1R,3S,5S)-3-amino-5-isopropylcyclohexyl)pyridin-3-yl)-6-(2,6-difluoro-4-(2-hydroxypropan-2-yl)phenyl)-5-fluoropicolinamide]",1.36 nM,0.42 nM,0.01 nM,17 nM
"C[C@H]1C[C@@H](c2ccncc2NC(=O)c2ccc(F)c(-c3c(F)cc(OC4CCOC4)cc3F)n2)C[C@@H](N)[C@@H]1O (stereo in doubt) [Example 70, N-(4-((1R,3R,4R,5S)-3-amino-4-hydroxy-5-methylcyclohexyl)pyridin-3-yl)-6-(2,6-difluoro-4-((S)-tetrahydrofuran-3-yloxy)phenyl)-5-fluoropicolinamide]",4.01 nM,1.15 nM,0.04 nM,68 nM
"N[C@H]1CCC[C@@H](c2ccncc2NC(=O)c2ccc(F)c(-c3c(F)cc(COC4CCOCC4)cc3F)n2)C1 [Example 154, N-(4-((1R,3S)-3-aminocyclohexyl)pyridin-3-yl)-6-(2,6-difluoro-4-((tetrahydro-2H-pyran-4-yloxy)methyl)phenyl)-5-fluoropicolinamide]",32 nM,5.22 nM,0.1 nM,492 nM
"CC(C)Oc1cc(F)c(-c2cccc(C(=O)Nc3cnccc3[C@H]3C[C@@H](N)[C@H](O)[C@@H](C)C3)n2)c(F)c1 [Example 189, N-(4-((1R,3R,4R,5S)-3-amino-4-hydroxy-5-methylcyclohexyl)pyridin-3-yl)-6-(2,6-difluoro-4-isopropoxyphenyl)picolinamide]",2.67 nM,0.96 nM,0.04 nM,470 nM
"CC(C)OCc1cc(F)c(-c2nc(C(=O)Nc3cnccc3[C@H]3C[C@@H](N)[C@H](O)[C@@H](C)C3)ccc2F)c(F)c1 [Example 148, N-(4-((1R,3R,4R,5S)-3-amino-4-hydroxy-5-methylcyclohexyl)pyridin-3-yl)-6-(2,6-difluoro-4-(isopropoxymethyl)phenyl)-5-fluoropicolinamide]",3.28 nM,1.47 nM,0.05 nM,185 nM
"C[C@@H]1C[C@H](N)C[C@H](c2ccncc2NC(=O)c2ccc(F)c(-c3c(F)cc(OCC(=O)N(C)C)cc3F)n2)C1 [Example 143, N-(4-((1R,3S,5S)-3-amino-5-methylcyclohexyl)pyridin-3-yl)-6-(4-(2-(dimethylamino)-2-oxoethoxy)-2,6-difluorophenyl)-5-fluoropicolinamide]",9.42 nM,0.77 nM,0.05 nM,197 nM
"C[C@@H]1C[C@H](N)C[C@H](c2ccncc2NC(=O)c2ccc(F)c(-c3c(F)cc(C(C)(C)C(=O)O)cc3F)n2)C1 [Example 181, 2-(4-(6-(4-((1R,3S,5S)-3-amino-5-methylcyclohexyl)pyridin-3-ylcarbamoyl)-3-fluoropyridin-2-yl)-3,5-difluorophenyl)-2-methylpropanoic acid]",4.75 nM,20.9 nM,0.45 nM,> 10000 nM
"CCOCc1cc(F)c(-c2nc(C(=O)Nc3cnccc3[C@H]3C[C@@H](N)[C@@H](O)[C@@H](C)C3)ccc2F)c(F)c1 [Example 134, N-(4-((1R,3R,4S,5S)-3-amino-4-hydroxy-5-methylcyclohexyl)pyridin-3-yl)-6-(4-(ethoxymethyl)-2,6-difluorophenyl)-5-fluoropicolinamide]",9.57 nM,4.89 nM,0.13 nM,228 nM
"C[C@H]1CN(c2ccncc2NC(=O)c2ccc(F)c(-c3c(F)cc([C@H](O)CO)cc3F)n2)C[C@@H](N)[C@@H]1O [Example 233, N-(4-((3R,4R,5S)-3-amino-4-hydroxy-5-methylpiperidin-1-yl)pyridin-3-yl)-6-(4-((S)-1,2-dihydroxyethyl)-2,6-difluorophenyl)-5-fluoropicolinamide]",2.2 nM,1.03 nM,0.04 nM,20 nM
